Measured values as given in patent US11596716B2, “Compounds and matrices for use in bone growth and repair” (Human BioMolecular Research Institute, priority 2013, dated 2023).

Tests used:
C2C12 cells [1] = experiment: Cell proliferation/viability assay (Resazurin / Alamar blue) in C2C12 cells; format: cell-based, Mouse
Method: Cell proliferation/viability assay: Cells were seeded at a density of 500 cells/well on 96-well plates. After 24 hr, compound (i.e., 5 nM, 50 nM, 500 nM or 5000 nM) was added to the cells in the presence or absence of calcium phosphate matrix (5 mg/mL). […] At the specified time, 1 μg of Resazurin was added to each well of the 96-well plate and the fluorescence signal at 590 nm (excitation at 530 nm) was immediately measured. Readings were designated as time zero values (value0h). Cells were incubated for 1 hr before a second fluorescence measurement at 590 nm was made (value1h). The difference in 1 hr and 0 h (value1h−value0h) readings were used to plot the fold-change in cell proliferation/viability after normalizing to control conditions (i.e., DMSO vehicle treatment). Compounds of Formula II or IV that activate Wnt signaling and compounds of Formula VI that activate TLR signaling pathways were analyzed. This protocol was applied to hMSC and E15 cells as well. Cell proliferation was not robust in keeping with a narrow number of cells highly committed to the bone cell lineage.

hMSCs [2] = experiment: qPCR of target gene mRNA expression in hMSCs; format: cell-based, human; conditions: hMSCs, comparison with compound 3 and calcium phosphate ceramic
Method: qPCR detection of osteogenic markers: Cells were cultured with compound in the presence or absence of matrix as described above, but using 96-well plate format. Total RNA was extracted from cells (as above) using Trizol. cDNA was made using 750 ng of total RNA with Bio-Rad iscript kit and was diluted 20-fold before being used for qPCR. qPCR was conducted under the following conditions: 95° C., 2 min; 95° C., 10 s and 60° C., 45 s for 40 cycles; 60° C. for 71 cycles for melt curve. qPCR results were analyzed by the ΔΔCt method. 18s rRNA was used as an internal standard. This protocol was applied to hMSC and E15 cells.
Runx2 and BMP-2 are osteogenic markers; Axin2, Wnt3a, and Sox 9 are Wnt-inducible gene markers.
The assay for mRNA expression followed the same procedure with hMSCs as described for C2C12 cells (Example 7).

Solubility in water = format: physicochemical
C2C12 cells [3] = experiment: Alkaline Phosphatase (ALP) functional activity assay in C2C12 cells; format: cell-based, Mouse; conditions: for activation at 0.5 µM: Mus musculus, C2C12, 144 h, compounds of Formula VI, normalized to DMSO treatment
Method: Alkaline Phosphatase (ALP) Functional Activity Assay: C2C12 cells were plated into 12-well plates with 7,000 cells/well in 1 mL growth media. […] 1, 2, 3, or 4 in 0.1% DMSO was added (500 nM). Half the media was exchanged with fresh media containing compound every 48 hrs. After 6 days, media was removed, ALP Lysis Buffer (10 mM Tris-HCl pH 8.0, 1 mM MgCl2, and 1% Triton X100) added, and cell lysate obtained (10 min incubation at RT) by centrifugation (5 min at 3500× g at 4° C.). Para-nitrophenol phosphate (pNPP) (2 mg/mL) was incubated with 50 μl cell lysate (10 mins, 37° C.). After addition of […] 0.02 N NaOH, absorbance OD405 was measured. Protein concentration was determined by Bradford protein assay. Results of ALP activity were plotted as nM pNP hydrolyzed/mg total protein. After normalizing control samples (i.e., DMSO-treated samples) to one-fold, the fold-changes were plotted to indicate the relative ALP activity. […] This protocol was applied to hMSC and E15 cells as well.

hMSCs [4] = experiment: TLR4/TLR3 mRNA expression ratio by qPCR in hMSCs; format: cell-based, human; conditions: 500 nM, 8 days
Source text: TLRs are modulators of hMSC differentiation. TLRs (TLR1-10) mRNA could be detected by qPCR in hMSCs. TLR4 is a biomarker for osteogenesis and TLR3 is a biomarker for adipogenesis. […]

C2C12 cells [5] = experiment: Alizarin Red S staining (calcium deposition) in C2C12 cells; format: cell-based, Mouse; conditions: 500 nM, 25 days of treatment
Method: Alizarin Red S Staining: C2C12 cells were cultured as described for the ALP functional activity assay (above, except compound was added every 48 hr for 25 days), but using 48-well plate format. On day 25, medium was removed and the cells were washed with PBS (calcium and magnesium free). Cells were fixed with 70% ethanol at room temperature for 30 mins, rinsed with water 3×. Following removal of water, 200 μl of Alizarin Red S (2%, pH 4.1) was added to each well and incubated for at least 20 mins. The dye was removed and the cells were washed with excess H2O four times with gentle mixing. The cells were covered with water to prevent evaporation and analyzed by plate reader or microscope. This protocol was applied to hMSC and E15 cells.

C2C12 cells [6] = experiment: qPCR detection of osteogenic markers in C2C12 cells; format: cell-based, Mouse; conditions: 500 nM, 6 days
hMSCs [7] = experiment: Alamar blue cell viability assay in hMSCs; format: cell-based, human; conditions: 500 nM, 25-day-old hMSCs
Method: Cell proliferation/viability assay: Cells were seeded at a density of 500 cells/well on 96-well plates. After 24 hr, compound (i.e., 5 nM, 50 nM, 500 nM or 5000 nM) was added to the cells in the presence or absence of calcium phosphate matrix (5 mg/mL). One-half of the media was replaced with fresh media containing compound every 48 hours for 8 days. At the specified time, 1 μg of Resazurin was added to each well of the 96-well plate and the fluorescence signal at 590 nm (excitation at 530 nm) was immediately measured. Readings were designated as time zero values (value0h). Cells were incubated for 1 hr before a second fluorescence measurement at 590 nm was made (value1h). The difference in 1 hr and 0 h (value1h−value0h) readings were used to plot the fold-change in cell proliferation/viability after normalizing to control conditions (i.e., DMSO vehicle treatment). Compounds of Formula II or IV that activate Wnt signaling and compounds of Formula VI that activate TLR signaling pathways were analyzed. This protocol was applied to hMSC and E15 cells as well. Cell proliferation was not robust in keeping with a narrow number of cells highly committed to the bone cell lineage.
The assay for cell proliferation followed the same procedure with hMSCs as described for C2C12 cells (Example 7).

Wnt transcription = experiment: WNT transcriptional reporter assay (Super(8×)TOPflash luciferase, HEK293T cells); format: cell-based; conditions: Wnt3A-expressing vector, 20 hrs, relative to cells treated with DMSO alone, read-out: Wnt transcription potency
Source text: Commercially available Super(8×)TOPflash vector driven by a (7×) TCF-firefly luciferase response element was transiently transfected into HEK293T cells, together with a TK-driven Renilla luciferase plasmid as an internal control to normalize the luminescence signal and a Wnt3A-expressing vector as the source of pathway activation. HEK293T cells were transfected with plasmids in DMEM plus 10% fetal bovine serum (FBS) for 8 hr, replated to 96-well plates in DMEM plus 10% FBS followed by treatment with compounds (1.6 nM to 5 M) (DMSO final concentration is 0.5%) for 20 hrs. Firefly and Renilla luciferase activities were measured and normalized by the Renilla luciferase values.

hMSCs [8] = experiment: Alkaline Phosphatase functional activity assay in hMSCs; format: cell-based, human; parameters: key to Alkaline Phosphatase activity, −matrix, 8 days / Alkaline Phosphatase activity, +matrix, 8 days / Alkaline Phosphatase activity, −matrix, 25 days / Alkaline Phosphatase activity, +matrix, 25 days: fold-change vs DMSO-treated control (control = 1); conditions: 500 nM
hMSCs [9] = experiment: Transwell migration of hMSCs to calcium phosphate matrix; format: cell-based, human; conditions: 500 nM
Method: Human MSC migration to the site of bone injury is an important part of the repair process. […] After 8 hrs, compounds were washed off the cells and cells placed in a traditional transwell migration system. The top reservoir contained serum-free DMEM and the bottom reservoir contained DMEM plus 2% FBS. After incubation overnight, non-migrated cells were removed, migrated cells (stuck in the bottom chamber) were then fixed with 70% EtOH (40 mins) and total migrated cells were counted under a microscope after staining with 1 mg/mL of crystal violet (1 hr). hMSCs treated with compound 2 (500 nM, 8 hr) induced a 10-fold greater cell migration to the matrix than DMSO-pre-treated cells under the conditions described above. In a separate experiment, matrix that was pre-coated with compound 4 (as prepared in Example 5) was placed in the bottom chamber and migration of hMSCs from the top chamber was evaluated. Compound 4-coated matrix induced a 2-fold increase in cell migration to the matrix compared to DMSO-treated cells.
hMSC migration was analyzed by using calcium phosphate matrix that had been pre-adsorbed with compounds 1 or 2 (500 nM, as described in Example 5) and studied in the transwell system (2% serum, described above). Compound 1 and 2 induced 3.5-fold and 1.9-fold more cell migration than non-coated ceramic. While non-limiting, these examples show the utility of the approach for increased cell migration and localization to the calcium phosphate ceramic matrix when compounds of the disclosure are present. Use of compounds of Formula II, IV, and VI to pre-coat the ceramic and also pretreat the cells is also of utility.

C2C12 cells [10] = experiment: qPCR of apoptosis biomarkers (Bax and Fos) in C2C12 cells; format: cell-based, Mouse; conditions: 500 nM or 5 μM every 48 hrs, up to 25 days
hMSCs [11] = experiment: qPCR of apoptosis biomarkers (Bax and Fos) in hMSCs; format: cell-based, human
[12] = matrix 5 mg/mL, mean +/− SD (n = 3)

SMILES: O=C(C=Cc1ccc(O)cc1)C=C(O)C=Cc1ccc(O)cc1 [Compound 54, 1,7-Bis(4-hydroxyphenyl)-5-hydroxy-hepta-1,4,6-trien-3-one]
- increase in cell proliferation (Alamar Blue Assay) (C2C12 cells [1]; 50 nM, 3 days): 2 fold
- robust mRNA up-regulation of VDR or ALP (hMSCs [2]): not observed
- solubility in water (Solubility in water): only sparingly soluble
- activation at 0.5 µM (C2C12 cells [3]; absence of matrix): 5 to 50%
- activation at 0.5 µM (C2C12 cells [3]; presence of calcium phosphate matrix): 50 to 100%

SMILES: Cc1nc2c(-c3ccccc3)cnn2c(NCCN(C)C)c1C [Compound 2, 3-phenyl-5,6-dimethyl-7-[N-(2-N,N-dimethylaminoethyl)amino]-pyrazolo[1,5-a]pyrimidine]
- TLR4/TLR3 ratio, compound alone (hMSCs [4]): modest increase
- cell viability (Alamar blue) (C2C12 cells [1]; 500 nM every 48 hrs for 25 days): did not show a decrease in cell viability
- calcium deposition, absence of matrix (C2C12 cells [5]): 2.0 fold
- calcium deposition, presence of matrix (C2C12 cells [5]): 2.3 fold
- ID3 mRNA expression, presence of matrix (C2C12 cells [6]): 1.7 fold
- cell viability (Alamar blue) (hMSCs [7]): no decrease in cell viability
- EC50 (Wnt transcription): > 40 nM
- ALP functional activity, compound and matrix versus compound alone or matrix alone (hMSCs [8]; 8 and 25 day incubations, matrix 5 mg/mL (FIG. 3)): exceeded the effect of compound alone or matrix alone
- Alkaline Phosphatase activity, +matrix, 8 days (hMSCs [8]; [12]): 2.6 ± 0.3
- Alkaline Phosphatase activity, +matrix, 25 days (hMSCs [8]; [12]): 4.5 ± 0.4
- Alkaline Phosphatase activity, −matrix, 25 days (hMSCs [8]; mean +/− SD (n = 3)): 2.6 ± 0.3
- Alkaline Phosphatase activity, −matrix, 8 days (hMSCs [8]; mean +/− SD (n = 3), fold): 1.5 ± 0.1
- cell migration to the matrix, hMSCs pre-treated with compound, versus DMSO-pre-treated cells (hMSCs [9]; 8 hr pre-treatment, transwell overnight): 10 fold
- cell migration to matrix pre-adsorbed with compound versus non-coated ceramic (hMSCs [9]; transwell, 2% serum): 1.9 fold
- gene expression of apoptosis biomarkers (Bax and Fos) (C2C12 cells [10]): unable to detect gene expression of typical apoptosis biomarkers
- ALP activity, combination of compound and matrix compared to compound alone or matrix alone (C2C12 cells [3]; 500 nM, 6 day incubation, tricalcium phosphate ceramic matrix 5 mg/mL (FIG. 2)): synergistic increase in ALP activity
- ALP activity fold-changes +/− SD, +matrix (C2C12 cells [3]; 500 nM, 6 days of culture, calcium phosphate ceramic 5 mg/mL): 23.6 ± 2.5 fold
- gene expression of apoptosis biomarkers (Bax and Fos) (hMSCs [11]; 500 nM to 5 μM, up to 25 days): unable to detect gene expression of typical apoptosis biomarkers
- cytotoxicity as determined by quantification of apoptosis (hMSCs [11]; hMSCs): no cytotoxicity
